Source: paper PMC6017874, “Synthesis of New C- and N-β-D-Glucopyranosyl Derivatives of Imidazole, 1,2,3-Triazole and Tetrazole, and Their Evaluation as Inhibitors of Glycogen Phosphorylase” (Molecules : A Journal of Synthetic Chemistry and Natural …, 2018)
Like-named read-outs stand apart in the source and are kept apart here.

Experiments:
[1] = target: T1, rabbit muscle glycogen phosphorylase b (RMGPb) (Oryctolagus cuniculus, UniProt P00489); test: Inhibition of rabbit muscle glycogen phosphorylase b (enzyme kinetic assay); type: biochemical; set-up: key to Inhibition: N.I.: no inhibition at 625 μM concentration; details: for Inhibition: N.I. = no inhibition at 625 μM concentration; for inhibition of RMGPb (in words): investigated concentration range, max 625 μM
T1 sequence (P00489 1-843): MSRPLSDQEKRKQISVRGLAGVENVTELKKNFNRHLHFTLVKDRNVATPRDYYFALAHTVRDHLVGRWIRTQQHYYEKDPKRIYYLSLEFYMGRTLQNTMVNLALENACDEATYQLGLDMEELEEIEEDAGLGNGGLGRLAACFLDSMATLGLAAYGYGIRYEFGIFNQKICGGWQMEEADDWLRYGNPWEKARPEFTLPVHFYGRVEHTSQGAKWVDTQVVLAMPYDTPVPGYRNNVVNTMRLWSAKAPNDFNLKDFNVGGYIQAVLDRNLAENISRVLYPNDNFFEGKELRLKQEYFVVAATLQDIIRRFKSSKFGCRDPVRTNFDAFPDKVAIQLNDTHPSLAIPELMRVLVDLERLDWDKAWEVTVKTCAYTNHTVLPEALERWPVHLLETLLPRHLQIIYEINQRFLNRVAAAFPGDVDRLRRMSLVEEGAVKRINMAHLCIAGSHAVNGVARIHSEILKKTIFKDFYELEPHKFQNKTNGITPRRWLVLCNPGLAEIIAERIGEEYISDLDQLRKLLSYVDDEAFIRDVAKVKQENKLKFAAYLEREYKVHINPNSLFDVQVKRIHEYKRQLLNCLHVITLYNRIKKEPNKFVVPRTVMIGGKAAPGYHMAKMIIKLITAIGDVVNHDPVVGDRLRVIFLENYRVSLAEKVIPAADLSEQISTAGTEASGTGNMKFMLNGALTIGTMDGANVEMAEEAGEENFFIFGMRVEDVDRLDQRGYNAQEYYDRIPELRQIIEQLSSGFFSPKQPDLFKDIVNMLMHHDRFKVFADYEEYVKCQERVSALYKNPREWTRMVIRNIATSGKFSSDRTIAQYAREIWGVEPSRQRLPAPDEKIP
Procedure: The new compounds were assayed against rabbit muscle glycogen phosphorylase b enzyme (RMGPb) as described earlier and the results are collected in Table 5. The inefficiency of C-glucopyranosyl 1,2,3-triazoles 5 (entries 4–6) as compared to the micromolar inhibition of the N-glucopyranosyl counterparts II in Table 2 came as a surprise, since the size of the heterocycle and the position of the H-bond donor and acceptor sites of the ring must not have been altered by the interchange of the substituents. A comparison of the inhibitory efficiency of N-benzoyl-β-D-gluco-pyranosylamine Ib (entry 1) with its “reversed” counterpart N-phenyl-2,6-anhydro-D-glycero-D-gulo-heptonamide 20 (shown in entry 3) results in a ratio of 38–67 (~53 as an average).

[2] = target: T1, rabbit muscle glycogen phosphorylase b (RMGPb); details: cited from earlier work

## OC[C@H]1O[C@@H](c2cn(-c3ccccc3)nn2)[C@H](O)[C@@H](O)[C@@H]1O [5a, 1-Phenyl-4-(β-D-glucopyranosyl)-1H-1,2,3-triazole]
[1]; RMGPb
  Inhibition: N.I.
[1]; RMGPb, inhibition constants of IIb multiplied by the average factor ~53, read-out: predicted inhibition constant
  Ki: 7900 to 8500 µM

## OC[C@H]1O[C@@H](c2noc(-c3ccccc3)n2)[C@H](O)[C@@H](O)[C@@H]1O [IVb]
[2]; RMGPb
  inhibition at 625 μM: 10% at 625 μM [38]

## OC[C@H]1O[C@@H](n2cnc(-c3ccccc3)c2)[C@H](O)[C@@H](O)[C@@H]1O [compound 8, 1-(β-D-Glucopyranosyl)-4-phenyl-1H-imidazole]
[1]; RMGPb
  Inhibition: N.I.
[1]
  inhibition of RMGPb (in words): non-inhibitory
other
  melting point: 273 to 274 °C

## O=C(Nc1ccccc1)[C@@H]1O[C@H](CO)[C@@H](O)[C@H](O)[C@H]1O [compound 20, N-phenyl-2,6-anhydro-D-glycero-D-gulo-heptonamide, reference compound]
[1]; RMGPb, average of the 38–67 ratio
  average ratio of inhibitory efficiency of Ib to its reversed counterpart 20: ~ 53
[1]; RMGPb, from literature Ki values of Ib and 20
  ratio of inhibitory efficiency of Ib to its reversed counterpart 20: 38–67
[2]; RMGPb
  Ki: 5400 µM

## Cn1nnnc1[C@@H]1O[C@H](CO)[C@@H](O)[C@H](O)[C@H]1O [14e, 1-Methyl-5-(β-D-glucopyranosyl)-1H-tetrazole]
[1]; RMGPb
  Inhibition: N.I.

## OC[C@H]1O[C@@H](c2nnn(-c3ccccc3)n2)[C@H](O)[C@@H](O)[C@@H]1O [13a, 2-Phenyl-5-(β-D-glucopyranosyl)-2H-tetrazole]
[1]; RMGPb
  Inhibition: N.I.

## OC[C@H]1O[C@@H](c2nnc(-c3ccc4ccccc4c3)o2)[C@H](O)[C@@H](O)[C@@H]1O [IIIc]
[2]; RMGPb
  inhibition at 625 μM: 10% at 625 μM [37]

## OC[C@H]1O[C@@H](c2nnc(-c3ccccc3)o2)[C@H](O)[C@@H](O)[C@@H]1O [IIIb]
[2]; RMGPb
  inhibition at 625 μM: 10% at 625 μM [37]

## OC[C@H]1O[C@@H](c2cn(-c3ccc4ccccc4c3)nn2)[C@H](O)[C@@H](O)[C@@H]1O [5b, 1-(Naphthalen-2-yl)-4-(β-D-glucopyranosyl)-1H-1,2,3-triazole]
[1]; RMGPb
  Inhibition: N.I.
other
  melting point: 224 to 225 °C

## Cn1nnc([C@@H]2O[C@H](CO)[C@@H](O)[C@H](O)[C@H]2O)n1 [13e, 2-Methyl-5-(β-D-glucopyranosyl)-2H-tetrazole]
[1]; RMGPb
  Inhibition: N.I.

## Cc1nc([C@@H]2O[C@H](CO)[C@@H](O)[C@H](O)[C@H]2O)no1 [IVa]
[2]; RMGPb
  inhibition at 625 μM (in words): No inh. at 625 μM [38]

## OC[C@H]1O[C@@H](c2cn(-c3cccc4ccccc34)nn2)[C@H](O)[C@@H](O)[C@@H]1O [5c, 1-(Naphthalen-1-yl)-4-(β-D-glucopyranosyl)-1H-1,2,3-triazole]
[1]; RMGPb
  Inhibition: N.I.

## OC[C@H]1O[C@@H](n2nnc(-c3ccccc3)n2)[C@H](O)[C@@H](O)[C@@H]1O [18a, 5-Phenyl-2-(β-D-glucopyranosyl)-2H-tetrazole]
[1]; RMGPb
  IC50: 600 µM
[1]; RMGPb, calculated from IC50 by the Cheng-Prusoff equation, read-out: calculated Ki
  Ki: 327 µM
[1]
  inhibition of RMGPb (in words): very weak inhibition

## OC[C@H]1OC(c2nnn[nH]2)[C@H](O)[C@@H](O)[C@@H]1O (some centres unmarked) [VIII, 5-Glucosyltetrazole]
[2]; RMGPb
  inhibition at 625 μM (in words): No inh. at 625 μM [35]
[2]
  inhibition of RMGPb (in words): inactive

## Cc1nnc([C@@H]2O[C@H](CO)[C@@H](O)[C@H](O)[C@H]2O)o1 [IIIa]
[2]
  Ki: 212 µM

## OC[C@H]1O[C@@H](n2nnnc2-c2ccccc2)[C@H](O)[C@@H](O)[C@@H]1O [19a, 5-Phenyl-1-(β-D-glucopyranosyl)-1H-tetrazole]
[1]; RMGPb
  Inhibition: N.I.

## Cc1nnn([C@@H]2O[C@H](CO)[C@@H](O)[C@H](O)[C@H]2O)n1 [18e, 5-Methyl-2-(β-D-glucopyranosyl)-2H-tetrazole]
[1]; RMGPb
  Inhibition: N.I.
